We go through 25 compounds from US11576947B2, “Oral composition and method” (Kunming Lanchie Dental Hospital, LTD, priority 2019, dated 2023).

The conditions of series [1]: hydrogen peroxide not stabilized, cited from earlier work.
The nature of series [2]: Stability test in aqueous system (Brilliant Blue color dissipation). Type of series: physicochemical. The arrangement: key: ++++: no color dissipation; +++: slightly dissipation; ++: obvious dissipation; +: totally dissipated.
Series [3] in a line: Stability test in propylene glycol (Brilliant Blue color dissipation). Format: physicochemical. Also on record: key: ++++: no color dissipation; +++: slightly dissipation; ++: obvious dissipation; +: totally dissipated.
Series [4] can be described thus: System stability evaluation: compatibility of ingredients with peroxide source and the system. Conditions: for Effect on peroxide and system stability: summary of testing of Tables 2 and 3.
Where [5] appears, read: water, 2.76% carbamide peroxide, 0.002% Brilliant Blue, compound amount 0.1%, 60 days, room temperature.
Where [6] appears, read: propylene glycol, 2.76% carbamide peroxide, 0.002% Brilliant Blue, compound amount 0.1%, 60 days, room temperature.
Setting [7] is: water, 2.76% carbamide peroxide, 0.002% Brilliant Blue, compound amount 15%, 60 days, room temperature.
[8] abbreviates: propylene glycol, 2.76% carbamide peroxide, 0.002% Brilliant Blue, compound amount 15%, 60 days, room temperature.
Setting [9] is: water, 2.76% carbamide peroxide, 0.002% Brilliant Blue, compound amount 1%, 60 days, room temperature.
The mark [10] stands for this setting: propylene glycol, 2.76% carbamide peroxide, 0.002% Brilliant Blue, compound amount 1%, 60 days, room temperature.
[11] abbreviates: water, 2.76% carbamide peroxide, 0.002% Brilliant Blue, compound amount 2%, 60 days, room temperature.
Setting [12] is: propylene glycol, 2.76% carbamide peroxide, 0.002% Brilliant Blue, compound amount 2%, 60 days, room temperature.

Like-named read-outs stand apart in the source and are kept apart here.

Take `[Al+3]` [Al (III)]: the “Oxygen lost % (24 hr, 100 C.)” value in series [1] (metal ion added 10 ppm) was 2%.
Turning to `O=P([O-])([O-])OP(=O)([O-])[O-].[Ca+2].[Ca+2]` [Calcium pyrophosphate], the “Color (color fading grade)” value in series [2] and in series [3] was “+” in each case.
On to `N=C(NCCCCCCNC(=N)NC(=N)Nc1ccc(Cl)cc1)NC(=N)Nc1ccc(Cl)cc1` [Chlorhexydine, reference compound], for which the “Color (color fading grade)” value is given as “+” in series [2] (setting [5]) and “++” in series [3] (setting [6]).
As for `[Cu+2]` [Cu(II)], the “Oxygen lost % (24 hr, 100 C.)” value in series [1] (metal ion added 0.01 ppm) was 24%.
Turning to `O=C([O-])CN(CCN(CC(=O)[O-])CC(=O)O)CC(=O)O.[Na+].[Na+]` [Disodium EDTA], the “Color (color fading grade)” value in series [2] (setting [5]) and in series [3] (setting [6]) was “+++” in each case.
For `[Fe+3]` [Fe(III)], the “Oxygen lost % (24 hr, 100 C.)” value in series [1] (metal ion added 10 ppm) is 15%.
Consider `OCC(O)CO` [Glycerin], for which the “Color (color fading grade)” value is listed as “+” in series [2] (water, 2.76% carbamide peroxide, 0.002% Brilliant Blue, compound amount 20%, 60 days, room temperature) and “++” in series [3] (propylene glycol, 2.76% carbamide peroxide, 0.002% Brilliant Blue, compound amount 20%, 60 days, room temperature).
Take `CCCCCCCCCCCCCCCC[n+]1ccccc1.[Cl-]` [Hexadecylpyridinium Chloride, Hexadecylpyridinium chloride, reference compound]: the figures for the “Color (color fading grade)” value in series [2] (setting [5]) and in series [3] (setting [6]) were “+” and “++”, respectively.
With `CC1CCC(C(C)C)C(O)C1` (centres unmarked) [Menthol], the “Color (color fading grade)” value in series [2] (setting [5]) and in series [3] (setting [6]) was “+++” throughout. Moreover, in series [4], the “Compatibility with the system (cationic biocide and peroxide source)” value (“Compatibility with the system” for short) is listed as “compatible”.
As for `CCCCCCCCCC[N+](C)(C)CCCCCCCCCC.O=C1CC[C@@H](C(=O)[O-])N1` [PODA, Proline, 5-oxo-, ion(1-), N-decyl-N,N-dimethyl-1-decanaminium (1:1)], the “Color (color fading grade)” value in series [2] (setting [5]) was “+”; in series [3] (setting [6]), “++”.
Consider `O=C([O-])[O-].[Ca+2]` [Precipitate calcium carbonate], for which the “Color (color fading grade)” value in series [2] (setting [7]) is “+”. Also, in series [4], the “Compatibility with the system” value is recorded as “not compatible”; the “Effect on peroxide and system stability” value was “activate the peroxide and make the system unstable”. Moreover, the “Color (color fading grade)” value in series [3] (setting [8]) was “+”.
As for `CCCCCCCCCCCCOS(=O)(=O)[O-].[Na+]` [Sodium Dodecyl Sulfate], the “Color (color fading grade)” value in series [2] (setting [9]) and in series [3] (setting [10]) was “+” each time. In addition, the “Compatibility with the system” value in series [4] is “incompatible”. Further, the “Effect on peroxide and system stability” value in series [4] is “activate the peroxide and make the system unstable”.
With `O=P([O-])(O)OP(=O)([O-])O.[Na+].[Na+]` [Sodium acid pyrophosphate], the “Color (color fading grade)” value in series [2] (setting [9]) and in series [3] (setting [10]) was “++” each time.
On to `[F-].[Na+]` [Sodium fluoride], for which the “Color (color fading grade)” value is “++” in series [2] (setting [5]) and “+++” in series [3] (setting [6]).
As for `O=C1NS(=O)(=O)c2ccccc21.[Na]` [Sodium saccharin], the results for the “Color (color fading grade)” value in series [2] and in series [3] were “++” and “+++”, respectively. The “Compatibility with the system” value in series [4] is recorded as “compatible”.
On to `O=P(O)(O)OP(=O)(O)OP(=O)(O)O` [Sodium tripolyphosphate], for which the “Compatibility with the system” value in series [4] is recorded as “not compatible”. Besides, the “Color (color fading grade)” value in series [3] (propylene glycol, 2.76% carbamide peroxide, 0.002% Brilliant Blue, compound amount 5%, 60 days, room temperature) is on record as “+”.
For `OC[C@@H](O)[C@@H](O)[C@H](O)[C@@H](O)CO` [Sorbitol], the “Color (color fading grade)” value is “+” in series [2] (water, 2.76% carbamide peroxide, 0.002% Brilliant Blue, compound amount 60%, 60 days, room temperature) and “+” in series [3] (propylene glycol, 2.76% carbamide peroxide, 0.002% Brilliant Blue, compound amount 60%, 60 days, room temperature).
As for `OC[C@H]1O[C@H](O[C@]2(CCl)O[C@H](CCl)[C@@H](O)[C@@H]2O)[C@H](O)[C@@H](O)[C@H]1Cl` [Sucralose], the “Color (color fading grade)” value in series [2] (water, 2.76% carbamide peroxide, 0.002% Brilliant Blue, compound amount 0.5%, 60 days, room temperature) was “++”; in series [3] (propylene glycol, 2.76% carbamide peroxide, 0.002% Brilliant Blue, compound amount 0.5%, 60 days, room temperature), “+++”. Besides, the “Compatibility with the system” value in series [4] is “compatible”.
Consider `O=P([O-])([O-])OP(=O)([O-])[O-].[Na+].[Na+].[Na+].[Na+]` [Tetrasodium pyrophosphate], for which the “Color (color fading grade)” value in series [2] and in series [3] was “+” each time. Further, the “Compatibility with the system” value in series [4] is reported as “not compatible”.
Take `[Zn+2]` [Zn(II)]: the “Oxygen lost % (24 hr, 100 C.)” value in series [1] (metal ion added 10 ppm) is 10%.
Turning to Cocamidopropyl betaine, the “Color (color fading grade)” value in series [2] (setting [11]) and in series [3] (setting [12]) was “++++” throughout.
Take Fatty Alcohol Polyoxyethylene Ether 9: the “Color (color fading grade)” value in series [2] (setting [11]) and in series [3] (setting [12]) was “+++” in each case. In addition, in series [4], the “Compatibility with the system” value is “compatible”.
For Lauryl glucoside, the “Color (color fading grade)” value in series [2] (setting [11]) and in series [3] (setting [12]) was “+” throughout.
In the case of Natural calcium carbonate, the “Color (color fading grade)” value in series [2] (setting [7]) and in series [3] (setting [8]) was “+” each time. For the same compound, in series [4], the “Compatibility with the system” value is given as “not compatible”.
Sucrose fatty acid ester: the “Color (color fading grade)” value in series [2] (setting [9]) and in series [3] (setting [10]) was “+” each time.
